28 molecules from ChEMBL document CHEMBL4414631 (J Med Chem, 2019) can be followed below.

For data set [1], the target named is Phosphatidylinositol 4,5-bisphosphate 3-kinase catalytic subunit gamma isoform (Homo sapiens, UniProt P48736).
Description: Inhibition of PI3Kgamma (unknown origin) using biotin-PIP3 as substrate preincubated for 15 mins followed by substrate addition and measured after 60 mins by fluorescence polarization assay
A short description of data set [2]: Lipophilicity, logD of compound at pH 7.4 by HPLC-MS analysis. The following applies: buffer.
The target of data set [3] is Phosphatidylinositol 4,5-bisphosphate 3-kinase catalytic subunit alpha isoform (Homo sapiens, UniProt P42336).
Phosphatidylinositol 4,5-bisphosphate 3-kinase catalytic subunit alpha isoform, sequence (P42336 whole entry, canonical isoform): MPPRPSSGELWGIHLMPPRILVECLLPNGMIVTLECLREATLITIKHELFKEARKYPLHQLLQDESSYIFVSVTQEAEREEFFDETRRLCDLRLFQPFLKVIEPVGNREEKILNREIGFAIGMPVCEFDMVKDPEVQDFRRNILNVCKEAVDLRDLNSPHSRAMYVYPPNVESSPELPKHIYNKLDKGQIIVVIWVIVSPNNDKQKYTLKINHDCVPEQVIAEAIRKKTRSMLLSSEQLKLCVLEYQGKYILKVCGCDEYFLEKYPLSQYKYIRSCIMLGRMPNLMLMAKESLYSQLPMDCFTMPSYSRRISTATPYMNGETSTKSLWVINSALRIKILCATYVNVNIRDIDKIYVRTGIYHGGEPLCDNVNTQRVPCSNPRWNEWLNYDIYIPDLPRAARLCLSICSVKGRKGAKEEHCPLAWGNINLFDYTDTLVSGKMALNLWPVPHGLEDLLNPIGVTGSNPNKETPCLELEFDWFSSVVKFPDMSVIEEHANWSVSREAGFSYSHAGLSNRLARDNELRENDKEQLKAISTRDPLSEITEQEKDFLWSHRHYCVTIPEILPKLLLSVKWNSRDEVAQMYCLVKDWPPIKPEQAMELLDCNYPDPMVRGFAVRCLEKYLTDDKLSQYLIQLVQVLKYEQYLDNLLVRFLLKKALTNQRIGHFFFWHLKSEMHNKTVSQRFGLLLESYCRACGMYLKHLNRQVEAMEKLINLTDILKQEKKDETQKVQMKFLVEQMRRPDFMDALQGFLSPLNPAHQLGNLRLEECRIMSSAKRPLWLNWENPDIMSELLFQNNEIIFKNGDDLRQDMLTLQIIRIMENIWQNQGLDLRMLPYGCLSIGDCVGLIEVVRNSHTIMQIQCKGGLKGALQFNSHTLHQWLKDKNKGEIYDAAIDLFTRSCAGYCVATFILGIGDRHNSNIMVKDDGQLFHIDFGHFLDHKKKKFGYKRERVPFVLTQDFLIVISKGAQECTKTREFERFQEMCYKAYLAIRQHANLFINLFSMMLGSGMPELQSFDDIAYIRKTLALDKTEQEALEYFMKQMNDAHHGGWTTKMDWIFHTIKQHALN
Description: Inhibition of PI3Kalpha (unknown origin) using biotin-PIP3 as substrate preincubated for 15 mins followed by substrate addition and measured after 60 mins by fluorescence polarization assay
The target in data set [4] is T1, Phosphatidylinositol 4,5-bisphosphate 3-kinase catalytic subunit delta isoform (Homo sapiens, UniProt O00329).
T1 sequence (O00329 whole entry): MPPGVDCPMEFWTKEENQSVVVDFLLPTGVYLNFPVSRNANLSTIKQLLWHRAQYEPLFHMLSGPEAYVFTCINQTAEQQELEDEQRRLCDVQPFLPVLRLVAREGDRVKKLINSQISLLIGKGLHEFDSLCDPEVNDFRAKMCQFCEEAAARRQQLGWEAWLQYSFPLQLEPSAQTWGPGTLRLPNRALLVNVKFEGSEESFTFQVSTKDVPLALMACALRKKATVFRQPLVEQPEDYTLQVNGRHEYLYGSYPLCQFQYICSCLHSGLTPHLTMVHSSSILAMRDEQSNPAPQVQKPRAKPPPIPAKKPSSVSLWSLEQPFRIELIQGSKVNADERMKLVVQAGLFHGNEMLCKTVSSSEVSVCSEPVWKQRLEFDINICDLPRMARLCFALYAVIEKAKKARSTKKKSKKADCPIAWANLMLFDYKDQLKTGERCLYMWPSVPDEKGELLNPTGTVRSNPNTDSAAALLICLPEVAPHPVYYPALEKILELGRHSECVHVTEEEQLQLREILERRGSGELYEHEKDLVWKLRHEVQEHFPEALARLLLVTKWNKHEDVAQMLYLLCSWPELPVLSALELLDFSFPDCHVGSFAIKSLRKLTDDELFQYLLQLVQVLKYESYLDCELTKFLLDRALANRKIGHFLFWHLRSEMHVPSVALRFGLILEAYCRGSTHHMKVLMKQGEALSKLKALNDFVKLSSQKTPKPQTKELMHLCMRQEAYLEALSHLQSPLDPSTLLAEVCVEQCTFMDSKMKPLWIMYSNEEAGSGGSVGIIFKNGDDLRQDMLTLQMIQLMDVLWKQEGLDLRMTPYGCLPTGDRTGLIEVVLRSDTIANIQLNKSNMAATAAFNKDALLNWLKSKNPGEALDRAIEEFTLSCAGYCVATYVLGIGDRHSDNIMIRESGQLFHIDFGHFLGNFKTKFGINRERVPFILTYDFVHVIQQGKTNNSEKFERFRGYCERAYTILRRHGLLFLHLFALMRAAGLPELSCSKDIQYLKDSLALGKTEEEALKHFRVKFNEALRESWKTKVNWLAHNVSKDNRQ
Description: Inhibition of PI3Kdelta (unknown origin) using biotin-PIP3 as substrate preincubated for 15 mins followed by substrate addition and measured after 60 mins by fluorescence polarization assay

Data set [5] has as its target Phosphatidylinositol 4,5-bisphosphate 3-kinase catalytic subunit beta isoform (Homo sapiens, UniProt P42338). The experiment in a line: Inhibition of PI3Kbeta (unknown origin) using biotin-PIP3 as substrate preincubated for 15 mins followed by substrate addition and measured after 60 mins by fluorescence polarization assay. (In fluorescence polarisation assays a small probe gives low polarisation when free and higher when bound to something large.)

Phosphatidylinositol 4,5-bisphosphate 3-kinase catalytic subunit beta isoform, sequence (P42338 whole entry, canonical isoform): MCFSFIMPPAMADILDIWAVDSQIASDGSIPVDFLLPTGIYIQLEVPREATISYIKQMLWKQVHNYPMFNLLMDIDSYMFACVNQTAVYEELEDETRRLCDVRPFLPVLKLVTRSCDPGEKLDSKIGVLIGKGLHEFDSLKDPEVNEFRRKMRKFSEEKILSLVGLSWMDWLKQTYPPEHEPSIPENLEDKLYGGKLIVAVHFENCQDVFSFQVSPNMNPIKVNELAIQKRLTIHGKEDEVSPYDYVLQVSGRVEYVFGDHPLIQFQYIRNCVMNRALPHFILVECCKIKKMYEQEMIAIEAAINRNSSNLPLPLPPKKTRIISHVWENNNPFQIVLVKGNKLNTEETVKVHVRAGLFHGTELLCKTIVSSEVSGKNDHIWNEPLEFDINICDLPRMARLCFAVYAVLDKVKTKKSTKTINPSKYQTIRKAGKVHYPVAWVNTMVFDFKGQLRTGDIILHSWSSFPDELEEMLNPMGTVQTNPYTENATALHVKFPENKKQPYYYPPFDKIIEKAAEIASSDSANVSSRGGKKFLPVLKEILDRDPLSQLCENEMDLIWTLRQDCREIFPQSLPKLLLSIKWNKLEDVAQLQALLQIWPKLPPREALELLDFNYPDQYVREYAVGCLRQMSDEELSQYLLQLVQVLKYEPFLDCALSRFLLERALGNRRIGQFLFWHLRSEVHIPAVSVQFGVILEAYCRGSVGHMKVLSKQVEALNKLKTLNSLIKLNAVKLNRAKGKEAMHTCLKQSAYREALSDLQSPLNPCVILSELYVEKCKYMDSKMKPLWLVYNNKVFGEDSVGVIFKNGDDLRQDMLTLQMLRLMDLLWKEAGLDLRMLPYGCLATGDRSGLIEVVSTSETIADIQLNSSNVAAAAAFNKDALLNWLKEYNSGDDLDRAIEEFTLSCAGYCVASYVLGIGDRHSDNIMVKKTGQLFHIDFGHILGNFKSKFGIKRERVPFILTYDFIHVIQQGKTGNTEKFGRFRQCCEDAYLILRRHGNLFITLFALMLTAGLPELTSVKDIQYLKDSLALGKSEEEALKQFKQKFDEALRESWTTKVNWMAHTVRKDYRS
Phosphatidylinositol 4,5-bisphosphate 3-kinase catalytic subunit gamma isoform, sequence (P48736 whole entry, canonical isoform): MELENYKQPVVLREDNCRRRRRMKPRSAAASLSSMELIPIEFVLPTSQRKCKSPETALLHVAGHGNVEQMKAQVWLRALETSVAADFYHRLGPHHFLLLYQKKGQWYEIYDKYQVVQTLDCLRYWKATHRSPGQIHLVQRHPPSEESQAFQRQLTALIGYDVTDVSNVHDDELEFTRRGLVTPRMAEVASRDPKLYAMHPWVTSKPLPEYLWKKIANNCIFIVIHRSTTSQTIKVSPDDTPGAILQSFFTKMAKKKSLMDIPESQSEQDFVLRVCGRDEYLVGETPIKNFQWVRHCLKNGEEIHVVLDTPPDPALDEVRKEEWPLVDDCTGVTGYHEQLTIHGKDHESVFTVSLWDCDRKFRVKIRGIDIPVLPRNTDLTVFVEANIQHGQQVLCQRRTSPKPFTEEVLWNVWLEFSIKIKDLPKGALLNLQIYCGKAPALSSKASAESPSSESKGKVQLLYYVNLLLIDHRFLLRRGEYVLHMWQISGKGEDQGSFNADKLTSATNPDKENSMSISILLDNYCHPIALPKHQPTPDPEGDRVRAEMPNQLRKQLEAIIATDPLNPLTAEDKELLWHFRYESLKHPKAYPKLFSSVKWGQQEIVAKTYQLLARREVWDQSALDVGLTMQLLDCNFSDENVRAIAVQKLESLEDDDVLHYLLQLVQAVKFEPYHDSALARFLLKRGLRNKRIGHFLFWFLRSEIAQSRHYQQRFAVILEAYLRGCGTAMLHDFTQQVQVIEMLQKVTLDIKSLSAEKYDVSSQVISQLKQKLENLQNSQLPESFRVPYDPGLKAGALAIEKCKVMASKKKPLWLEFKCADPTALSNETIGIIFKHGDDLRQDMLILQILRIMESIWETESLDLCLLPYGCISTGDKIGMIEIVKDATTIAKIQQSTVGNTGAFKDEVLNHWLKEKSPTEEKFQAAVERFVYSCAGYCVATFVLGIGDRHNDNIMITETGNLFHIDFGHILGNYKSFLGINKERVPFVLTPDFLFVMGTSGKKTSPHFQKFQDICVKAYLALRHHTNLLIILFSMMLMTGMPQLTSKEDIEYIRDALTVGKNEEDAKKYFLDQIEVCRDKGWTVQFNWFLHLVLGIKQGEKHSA

In the case of `CN(C1CCN(Cc2cc3nc(-c4cccc5[nH]ncc45)nc(N4CCOCC4)c3s2)CC1)S(C)(=O)=O`, the IC50 in data set [1] was 794 nM; in data set [3] it was 316 nM; in data set [4], 39.8 nM; in data set [5], 5010 nM. In addition, the logD in data set [2] was found to be 4.5.

Consider `COCC(=O)NC1CCN(Cc2cc3nc(-c4cccc5[nH]ccc45)nc(N4CCOCC4)c3s2)C1` (racemic), for which the IC50 was 2510 nM in data set [1], 1580 nM in data set [3], 100 nM in data set [4] and 1000 nM in data set [5]. For the same molecule, in data set [2], the logD came out at 4.1.

For `CNC(=O)NC1CCN(Cc2cc3nc(-c4cnc(N)nc4)nc(N4CCOCC4)c3s2)CC1`, the IC50 is 63.1 nM in data set [1], 25.1 nM in data set [3], 39.8 nM in data set [4] and 631 nM in data set [5]. Also, in data set [2], the logD was 1.9.

Turning to `CC(=O)NC1CCCN(Cc2cc3nc(-c4cnc(N)nc4)nc(N4CCOCC4)c3s2)C1` (racemic), the IC50 in data set [1] is 158 nM; in data set [3], 126 nM; in data set [4] it was 79.4 nM; in data set [5], 2000 nM. This molecule also came in with a logD in data set [2] of 2.5.

Regarding `CC(=O)N(C)C1CCN(Cc2cc3nc(-c4cccc5[nH]ncc45)nc(N4CCOCC4)c3s2)CC1`, the IC50 is 1000 nM in data set [1], 501 nM in data set [3], 31.6 nM in data set [4] and 2000 nM in data set [5]. Also, the logD in data set [2] was 4.1.

`CC(=O)NC1CCN(Cc2cc3nc(-c4cccc5[nH]ccc45)nc(N4CCOCC4)c3s2)C1` (racemic): the IC50 was 2000 nM in data set [1], 3160 nM in data set [3], 63.1 nM in data set [4] and 1260 nM in data set [5]. The same molecule yielded a logD in data set [2] of 3.7.

On to `COCC(=O)NC1CCN(Cc2cc3nc(-c4cnc(N)nc4)nc(N4CCOCC4)c3s2)C1` (racemic), for which the IC50 in data set [1] was 50.1 nM; in data set [3], 39.8 nM; in data set [4], 79.4 nM; in data set [5] it was 501 nM. In data set [2], this molecule returned a logD of 2.3.

Regarding `CN(C1CCCN(Cc2cc3nc(-c4cnc(N)nc4)nc(N4CCOCC4)c3s2)C1)S(C)(=O)=O` (racemic), the IC50 in data set [1] is 25.1 nM; in data set [3] it was 39.8 nM; in data set [4], 5.01 nM; in data set [5] it was 1000 nM. The logD in data set [2] was 3.5.

On to `COCC(=O)NC1CCN(Cc2cc3nc(-c4cccc5[nH]ncc45)nc(N4CCOCC4)c3s2)C1` (racemic), for which the IC50 is 794 nM in data set [1], 316 nM in data set [3], 200 nM in data set [4] and 3160 nM in data set [5]. Further, the logD in data set [2] was determined as 3.4.

Regarding `CS(=O)(=O)NC1CCN(Cc2cc3nc(-c4cnc(N)nc4)nc(N4CCOCC4)c3s2)CC1`, the IC50 in data set [1] was 63.1 nM; in data set [3], 31.6 nM; in data set [4], 25.1 nM; in data set [5] it was 398 nM. The molecule further returned a logD in data set [2] of 2.4.

As to `CC(=O)N(C)[C@@H]1CCN(Cc2cc3nc(-c4cnc(N)nc4)nc(N4CCOCC4)c3s2)C1`, the 50% inhibitory concentration (IC50) in data set [1] is 25.1 nM; in data set [3], 31.6 nM; in data set [4], 7.94 nM; in data set [5] it was 398 nM. In data set [2], this molecule yielded a logD of 2.5.

`CC(=O)NC1CCN(Cc2cc3nc(-c4cnc(N)nc4)nc(N4CCOCC4)c3s2)CC1`: the IC50 in data set [1] was 158 nM; in data set [3], 126 nM; in data set [4] it was 100 nM; in data set [5], 1580 nM. In data set [2], this molecule had a logD of 2.2.

As to `CS(=O)(=O)NC1CCN(Cc2cc3nc(-c4cccc5[nH]ccc45)nc(N4CCOCC4)c3s2)C1` (racemic), the IC50 in data set [1] was 1580 nM; in data set [3] it was 1580 nM; in data set [4] it was 25.1 nM; in data set [5] it was 631 nM. This molecule yielded a logD in data set [2] of 4.3.

Regarding `CNC(=O)NC1CCN(Cc2cc3nc(-c4cccc5[nH]ccc45)nc(N4CCOCC4)c3s2)C1` (racemic), the IC50 in data set [1] was 3980 nM; in data set [3], 3160 nM; in data set [4], 126 nM; in data set [5], 2000 nM. In addition, the logD in data set [2] stood at 3.4.

With `COCC(=O)N(C)C1CCCN(Cc2cc3nc(-c4cccc5[nH]ncc45)nc(N4CCOCC4)c3s2)C1` (racemic), the IC50 in data set [1] was 3160 nM; in data set [3], 794 nM; in data set [4] it was 126 nM; in data set [5], 6310 nM. In data set [2], this molecule had a logD of 4.3.

On to `CC(=O)NC1CCN(Cc2cc3nc(-c4cccc5[nH]ncc45)nc(N4CCOCC4)c3s2)C1` (racemic), for which the half-maximal inhibitory concentration (IC50) is 1260 nM in data set [1], 501 nM in data set [3], 251 nM in data set [4] and 3980 nM in data set [5]. In data set [2], this molecule had a logD of 3.

Consider `CC(=O)N(C)C1CCN(Cc2cc3nc(-c4cnc(N)nc4)nc(N4CCOCC4)c3s2)CC1`, for which the IC50 was 39.8 nM in data set [1], 39.8 nM in data set [3], 6.31 nM in data set [4] and 398 nM in data set [5]. Further, in data set [2], the logD was 2.8.

For the molecule `CS(=O)(=O)NC1CCN(Cc2cc3nc(-c4cccc5[nH]ncc45)nc(N4CCOCC4)c3s2)C1` (racemic), the half-inhibitory concentration (IC50) in data set [1] was 1260 nM; in data set [3], 251 nM; in data set [4] it was 63.1 nM; in data set [5], 3160 nM. Further, the logD in data set [2] worked out at 3.5.

For `CS(=O)(=O)NC1CCN(Cc2cc3nc(-c4cccc5[nH]ccc45)nc(N4CCOCC4)c3s2)CC1`, the IC50 in data set [1] was 1000 nM; in data set [3] it was 1260 nM; in data set [4], 20 nM; in data set [5], 631 nM. The same molecule showed a logD in data set [2] of 4.4.

Consider `CNC(=O)N(C)C1CCCN(Cc2cc3nc(-c4cccc5[nH]ccc45)nc(N4CCOCC4)c3s2)C1` (racemic), for which the IC50 was 6310 nM in data set [1], 3160 nM in data set [3], 126 nM in data set [4] and 10000 nM in data set [5]. Moreover, the logD in data set [2] was found to be 4.5.

Regarding `COCC(=O)NC1CCCN(Cc2cc3nc(-c4cnc(N)nc4)nc(N4CCOCC4)c3s2)C1` (racemic), the IC50 is 631 nM in data set [1], 501 nM in data set [3], 316 nM in data set [4] and 10000 nM in data set [5]. This molecule also returned a logD in data set [2] of 3.

For `CNC(=O)NC1CCN(Cc2cc3nc(-c4cccc5[nH]ncc45)nc(N4CCOCC4)c3s2)C1` (racemic), the half-inhibitory concentration (IC50) was 1260 nM in data set [1], 316 nM in data set [3], 200 nM in data set [4] and 2510 nM in data set [5]. This molecule also gave a logD in data set [2] of 2.9.

Turning to `CC(=O)NC1CCN(Cc2cc3nc(-c4cnc(N)nc4)nc(N4CCOCC4)c3s2)C1` (racemic), the IC50 in data set [1] was 79.4 nM; in data set [3] it was 31.6 nM; in data set [4], 79.4 nM; in data set [5], 501 nM. In data set [2], this molecule gave a logD of 1.9.

As to `COCC(=O)N(C)C1CCN(Cc2cc3nc(-c4cccc5[nH]ncc45)nc(N4CCOCC4)c3s2)C1` (racemic), the IC50 in data set [1] was 1000 nM; in data set [3], 631 nM; in data set [4] it was 79.4 nM; in data set [5], 5010 nM. This molecule also displayed a logD in data set [2] of 3.8.

Turning to `CNC(=O)NC1CCCN(Cc2cc3nc(-c4cccc5[nH]ncc45)nc(N4CCOCC4)c3s2)C1` (racemic), the IC50 in data set [1] is 3160 nM; in data set [3], 316 nM; in data set [4] it was 100 nM; in data set [5] it was 7940 nM. Also, the logD in data set [2] was 3.6.

On to `CC(=O)N(C)C1CCN(Cc2cc3nc(-c4cnc(N)nc4)nc(N4CCOCC4)c3s2)C1` (racemic), for which the IC50 in data set [1] is 39.8 nM; in data set [3], 20 nM; in data set [4], 12.6 nM; in data set [5] it was 631 nM. Also, in data set [2], the logD came to 2.8.

Regarding `CS(=O)(=O)NC1CCCN(Cc2cc3nc(-c4cnc(N)nc4)nc(N4CCOCC4)c3s2)C1` (racemic), the IC50 in data set [1] is 39.8 nM; in data set [3], 20 nM; in data set [4], 15.8 nM; in data set [5], 316 nM. Further, the logD in data set [2] was 3.1.

In the case of `COCC(=O)NC1CCCN(Cc2cc3nc(-c4cccc5[nH]ncc45)nc(N4CCOCC4)c3s2)C1` (racemic), the IC50 in data set [1] is 2510 nM; in data set [3], 398 nM; in data set [4] it was 100 nM; in data set [5] it was 6310 nM. In data set [2], this molecule showed a logD of 4.5.

By IC50 is commonly meant the concentration that gives 50% inhibition. Read a low IC50 as greater potency in that assay. The term logD denotes lipophilicity at a set pH, counting ionised and neutral species. A low value points to a more hydrophilic compound.
